Measurements reported in ChEMBL document CHEMBL4052747 (Bioorg Med Chem Lett, 2017).
Structures can show the parent of a compound that is named as a salt. Activity calls are given as the source filed them.

How the values were obtained:
Mu-type opioid receptor [1] = molecular target: T1, Mu-type opioid receptor (Homo sapiens, UniProt P35372); experiment: Agonist activity at human mu opioid receptor expressed in CHO-dhfr(-) cells assessed as inhibition of forskolin-induced cAMP accumulation by TR-FRET assay; format: functional, cell-based
[2] = molecular target: T2, Kappa-type opioid receptor (Homo sapiens, UniProt P41145); experiment: Agonist activity at human kappa opioid receptor expressed in CHO-K1 cells assessed as inhibition of forskolin-induced cAMP accumulation by TR-FRET assay; format: functional, cell-based
Rattus norvegicus = experiment: Anti-allodynic activity in rat model of partial sciatic nerve ligation-induced allodynia assessed as effect on withdrawal threshold at 3 and 5 mg/kg, iv dosed 7 days after ligation and measured 30 mins post dose by up-down method with von Frey filaments assay; format: functional, organism-based
[3] = molecular target: T2, Kappa-type opioid receptor; experiment: Agonist activity at human kappa opioid receptor
Homo sapiens = species: Homo sapiens; experiment: Selectivity for human kappa opioid receptor over human mu opioid receptor
Mus musculus = experiment: Anti-pruritic activity in mouse assessed as reduction in substance P-induced scratching behavior at 3 mg/kg, ip dosed 15 mins before substance P injection and measured for 30 mins post substance P challenge by MicroAct based method; format: functional, organism-based
Mu-type opioid receptor [4] = molecular target: T1, Mu-type opioid receptor; experiment: Agonist activity at mu opioid receptor (unknown origin)

T2 sequence (P41145 whole entry): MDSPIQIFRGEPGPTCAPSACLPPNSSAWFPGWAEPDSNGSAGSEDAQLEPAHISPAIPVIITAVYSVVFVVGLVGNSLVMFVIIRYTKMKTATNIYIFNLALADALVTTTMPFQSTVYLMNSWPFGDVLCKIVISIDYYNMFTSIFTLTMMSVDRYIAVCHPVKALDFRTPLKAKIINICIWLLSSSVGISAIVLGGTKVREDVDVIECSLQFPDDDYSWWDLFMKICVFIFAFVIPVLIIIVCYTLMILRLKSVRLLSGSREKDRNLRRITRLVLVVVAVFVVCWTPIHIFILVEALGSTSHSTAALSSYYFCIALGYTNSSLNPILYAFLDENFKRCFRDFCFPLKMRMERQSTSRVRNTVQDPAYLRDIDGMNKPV
T1 sequence (P35372 whole entry): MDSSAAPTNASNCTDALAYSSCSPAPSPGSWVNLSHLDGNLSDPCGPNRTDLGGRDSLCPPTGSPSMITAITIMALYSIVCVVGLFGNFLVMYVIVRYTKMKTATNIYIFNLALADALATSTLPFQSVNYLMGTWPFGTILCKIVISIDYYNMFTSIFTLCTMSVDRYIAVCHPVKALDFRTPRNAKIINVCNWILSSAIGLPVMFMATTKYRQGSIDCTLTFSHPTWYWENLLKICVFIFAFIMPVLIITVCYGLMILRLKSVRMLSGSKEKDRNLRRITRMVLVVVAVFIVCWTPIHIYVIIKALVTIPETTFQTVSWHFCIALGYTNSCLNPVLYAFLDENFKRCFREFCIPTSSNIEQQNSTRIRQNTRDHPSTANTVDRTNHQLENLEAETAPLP

Structure (SMILES) | EC50 (Mu-type opioid receptor [1]) [nM] | Emax (Mu-type opioid receptor [1]) [%] | EC50 [2] [nM] | Emax [2] [%] | Activity (Rattus norvegicus) | EC50 [3] [nM] | Selectivity ratio (Homo sapiens) | Activity (Mus musculus) | EC50 (Mu-type opioid receptor [4]) [nM]
CN(C(=O)/C=C/c1ccco1)[C@@H]1CC[C@@]2(O)[C@H]3[C@@H](O)c4ccc(O)c5c4[C@@]2(CCN3CC2CC2)[C@H]1O5 | 14200 | 55 | 0.122 | 102 | – | – | – | – | –
CN(C(=O)/C=C/c1cccnc1)[C@@H]1CC[C@@]2(O)[C@H]3[C@@H](O)c4ccc(O)c5c4[C@@]2(CCN3CC2CC2)[C@H]1O5 | 3760 | 86 | 0.291 | 101 | – | – | – | – | –
CN(C(=O)/C=C/c1ccsc1)[C@@H]1CC[C@@]2(O)[C@H]3[C@@H](O)c4ccc(O)c5c4[C@@]2(CCN3CC2CC2)[C@H]1O5 | 110 | 96 | 0.028 | 101 | – | – | – | – | –
CN(C(=O)/C=C/c1ccoc1)[C@@H]1CC[C@@]2(O)[C@H]3[C@@H](O)c4ccc(O)c5c4[C@@]2(CCN3CC2CC2)[C@H]1O5 | 1100 | 88 | 0.025 | 99 | Active | 0.025 | 44000 | Active | –
CN(C(=O)/C=C/c1ccccc1)[C@@H]1CC[C@@]2(O)[C@H]3[C@@H](O)c4ccc(O)c5c4[C@@]2(CCN3CC2CC2)[C@H]1O5 | 209 | 107 | 0.0222 | 101 | – | – | – | – | –
CN(C(=O)/C=C/c1ccccn1)[C@@H]1CC[C@@]2(O)[C@H]3[C@@H](O)c4ccc(O)c5c4[C@@]2(CCN3CC2CC2)[C@H]1O5 | 2880 | 89 | 0.0283 | 99 | – | – | – | – | –
CN(C(=O)C#Cc1ccccc1)[C@@H]1CC[C@@]2(O)[C@H]3[C@@H](O)c4ccc(O)c5c4[C@@]2(CCN3CC2CC2)[C@H]1O5 | 904 | 95 | 0.0799 | 102 | – | – | – | – | –
CN(C(=O)/C=C/c1ccc(Cl)cc1)[C@@H]1CC[C@@]2(O)[C@H]3[C@@H](O)c4ccc(O)c5c4[C@@]2(CCN3CC2CC2)[C@H]1O5 | 48.8 | 92 | 0.0288 | 99 | – | – | – | – | –
CN(C(=O)/C=C/c1cccs1)[C@@H]1CC[C@@]2(O)[C@H]3[C@@H](O)c4ccc(O)c5c4[C@@]2(CCN3CC2CC2)[C@H]1O5 | 4870 | 58 | 0.00466 | 101 | – | – | – | – | –
CN(C(=O)c1ccccc1)[C@@H]1CC[C@@]2(O)[C@H]3[C@@H](O)c4ccc(O)c5c4[C@@]2(CCN3CC2CC2)[C@H]1O5 | > 30000 | 44 | > 100 | 23 | – | – | – | – | –
CN(C(=O)COc1ccccc1)[C@@H]1CC[C@@]2(O)[C@H]3[C@@H](O)c4ccc(O)c5c4[C@@]2(CCN3CC2CC2)[C@H]1O5 | > 30000 | 17 | 5.04 | 97 | – | – | – | – | –
Cc1ccc(/C=C/C(=O)N(C)[C@@H]2CC[C@@]3(O)[C@H]4[C@@H](O)c5ccc(O)c6c5[C@@]3(CCN4CC3CC3)[C@H]2O6)cc1 | 308 | 72 | 0.0494 | 101 | – | – | – | – | –
CN(C(=O)/C=C/c1ccc(O)cc1)[C@@H]1CC[C@@]2(O)[C@H]3[C@@H](O)c4ccc(O)c5c4[C@@]2(CCN3CC2CC2)[C@H]1O5 | > 30000 | 49 | 0.0953 | 98 | – | – | – | – | –
CN(C(=O)CCc1ccccc1)[C@@H]1CC[C@@]2(O)[C@H]3[C@@H](O)c4ccc(O)c5c4[C@@]2(CCN3CC2CC2)[C@H]1O5 | 18300 | 57 | 1.04 | 100 | – | – | – | – | –
CN(C(=O)CCCc1ccccc1)[C@@H]1CC[C@@]2(O)[C@H]3[C@@H](O)c4ccc(O)c5c4[C@@]2(CCN3CC2CC2)[C@H]1O5 | 12900 | 99 | 7.51 | 96 | – | – | – | – | –
CN(C(=O)Cc1ccccc1)[C@@H]1CC[C@@]2(O)[C@H]3[C@@H](O)c4ccc(O)c5c4[C@@]2(CCN3CC2CC2)[C@H]1O5 | > 30000 | 43 | > 100 | 18 | – | – | – | – | –
CN(C(=O)/C=C/c1ccoc1)[C@@H]1CC[C@@]2(O)[C@H]3Cc4ccc(O)c5c4[C@@]2(CCN3CC2CC2)[C@H]1O5 [NALFURAFINE HYDROCHLORIDE] | – | – | – | – | – | – | – | – | 1.7
CN(C(=O)/C=C/c1ccncc1)[C@@H]1CC[C@@]2(O)[C@H]3[C@@H](O)c4ccc(O)c5c4[C@@]2(CCN3CC2CC2)[C@H]1O5 | 12100 | 62 | 0.0257 | 99 | – | – | – | – | –
